According to US8952024B2, “Herbicidal pyrimidone derivatives” (E I du Pont de Nemours and Company, priority 2009, dated 2015):

Experiments:
Experiment in all cases: Test C plant response
Type in all cases: in vivo
Settings in all cases: Postemergence, scale 0 to 100
[1] = tested on: pigweed (Amaranthus retroflexus)
Summary of the method: (§1)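 Efficacy is a visual percent-control score (0 none, 100 complete), judged against controls 14 days after application. Compounds go on in a non-phytotoxic solvent carrier with surfactant. A dash marks a missing result.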

[2] = tested on: oilseed rape (Brassica napus)
Summary of the method: as §1

[3] = tested on: lambsquarters (Chenopodium album)
Summary of the method: as §1

[4] = tested on: deadnettle (henbit deadnettle, Lamium amplexicaule)
Summary of the method: as §1

[5] = tested on: bluegrass (annual bluegrass, Poa annua)
Summary of the method: as §1

[6] = tested on: winter wheat (Triticum aestivum)
Summary of the method: as §1

[7] = tested on: field poppy (Papaver rhoeas)
Summary of the method: as §1

[8] = tested on: wild mustard (Sinapis arvensis)
Summary of the method: as §1

wild oat (Avena fatua) = tested on: wild oat (Avena fatua)
Summary of the method: as §1

kochia (Kochia scoparia) = tested on: kochia (Kochia scoparia)
Summary of the method: as §1

[9] = tested on: buckwheat (wild buckwheat, Polygonum convolvulus)
Summary of the method: as §1

[10] = tested on: wild radish (Raphanus raphanistrum)
Summary of the method: as §1

[11] = tested on: field violet (Viola arvensis)
Summary of the method: as §1

[12] = tested on: spring wheat (Triticum aestivum)
Summary of the method: as §1

[13] = tested on: chickweed (common chickweed, Stellaria media)
Summary of the method: as §1

[14] = tested on: spring barley (Hordeum vulgare)
Summary of the method: as §1

[15] = tested on: green foxtail (Setaria viridis)
Summary of the method: as §1

[16] = tested on: windgrass (Apera spica-venti)
Summary of the method: as §1

[17] = tested on: bromegrass (downy bromegrass, Bromus tectorum)
Summary of the method: as §1

[18] = tested on: Russian thistle (Salsola iberica)
Summary of the method: as §1

[19] = tested on: blackgrass (Alopecurus myosuroides)
Summary of the method: as §1

## Cc1cc(C)cc(-n2c(-c3ccccc3)ncc(C(=O)C3=C(O)CCCC3=O)c2=O)c1 [Compound 33]
[1]; 31 g ai/ha
  Plant response rating: Pigweed: 95
[1]; 16 g ai/ha
  Plant response rating: Pigweed: 75
[1]; 62 g ai/ha
  Plant response rating: Pigweed: 95
[1]; 125 g ai/ha
  Plant response rating: Pigweed: 98
[2]; 31 g ai/ha
  Plant response rating: Oilseed Rape: 98
[2]; 16 g ai/ha
  Plant response rating: Oilseed Rape: 90
[2]; 62 g ai/ha
  Plant response rating: Oilseed Rape: 100
[2]; 125 g ai/ha
  Plant response rating: Oilseed Rape: 100
[3]; 31 g ai/ha
  Plant response rating: Lambsquarters: 98
[3]; 16 g ai/ha
  Plant response rating: Lambsquarters: 98
[3]; 62 g ai/ha
  Plant response rating: Lambsquarters: 100
[3]; 125 g ai/ha
  Plant response rating: Lambsquarters: 100
[4]; 31 g ai/ha
  Plant response rating: Deadnettle: 98
[4]; 16 g ai/ha
  Plant response rating: Deadnettle: 95
[4]; 62 g ai/ha
  Plant response rating: Deadnettle: 98
[4]; 125 g ai/ha
  Plant response rating: Deadnettle: 100
[5]; 31 g ai/ha
  Plant response rating: Bluegrass: 0
[5]; 16 g ai/ha
  Plant response rating: Bluegrass: 0
[5]; 62 g ai/ha
  Plant response rating: Bluegrass: 15
[5]; 125 g ai/ha
  Plant response rating: Bluegrass: 40
[6]; 31 g ai/ha
  Plant response rating: Wheat, Winter: 0
[6]; 16 g ai/ha
  Plant response rating: Wheat, Winter: 0
[6]; 62 g ai/ha
  Plant response rating: Wheat, Winter: 5
[6]; 125 g ai/ha
  Plant response rating: Wheat, Winter: 5
[7]; 31 g ai/ha
  Plant response rating: Field Poppy: 80
[7]; 16 g ai/ha
  Plant response rating: Field Poppy: 80
[7]; 62 g ai/ha
  Plant response rating: Field Poppy: 90
[7]; 125 g ai/ha
  Plant response rating: Field Poppy: 98
[8]; 31 g ai/ha
  Plant response rating: Mustard, Wild: 98
[8]; 16 g ai/ha
  Plant response rating: Mustard, Wild: 98
[8]; 62 g ai/ha
  Plant response rating: Mustard, Wild: 98
[8]; 125 g ai/ha
  Plant response rating: Mustard, Wild: 100
Wild oat (Avena fatua); 31 g ai/ha
  Plant response rating: Oat, Wild: 0
Wild oat (Avena fatua); 16 g ai/ha
  Plant response rating: Oat, Wild: 0
Wild oat (Avena fatua); 62 g ai/ha
  Plant response rating: Oat, Wild: 5
Wild oat (Avena fatua); 125 g ai/ha
  Plant response rating: Oat, Wild: 10
Kochia (Kochia scoparia); 31 g ai/ha
  Plant response rating: Kochia: 50
Kochia (Kochia scoparia); 16 g ai/ha
  Plant response rating: Kochia: 35
Kochia (Kochia scoparia); 62 g ai/ha
  Plant response rating: Kochia: 60
Kochia (Kochia scoparia); 125 g ai/ha
  Plant response rating: Kochia: 70
[9]; 31 g ai/ha
  Plant response rating: Buckwheat, Wild: 65
[9]; 16 g ai/ha
  Plant response rating: Buckwheat, Wild: 60
[9]; 62 g ai/ha
  Plant response rating: Buckwheat, Wild: 75
[9]; 125 g ai/ha
  Plant response rating: Buckwheat, Wild: 75
[10]; 31 g ai/ha
  Plant response rating: Radish, Wild: 95
[10]; 16 g ai/ha
  Plant response rating: Radish, Wild: 90
[10]; 62 g ai/ha
  Plant response rating: Radish, Wild: 95
[10]; 125 g ai/ha
  Plant response rating: Radish, Wild: 98
[11]; 31 g ai/ha
  Plant response rating: Field Violet: 90
[11]; 16 g ai/ha
  Plant response rating: Field Violet: 65
[11]; 62 g ai/ha
  Plant response rating: Field Violet: 95
[11]; 125 g ai/ha
  Plant response rating: Field Violet: 95
[12]; 31 g ai/ha
  Plant response rating: Wheat, Spring: 10
[12]; 16 g ai/ha
  Plant response rating: Wheat, Spring: 10
[12]; 62 g ai/ha
  Plant response rating: Wheat, Spring: 10
[12]; 125 g ai/ha
  Plant response rating: Wheat, Spring: 10
[13]; 31 g ai/ha
  Plant response rating: Chickweed: 90
[13]; 16 g ai/ha
  Plant response rating: Chickweed: 90
[13]; 62 g ai/ha
  Plant response rating: Chickweed: 98
[13]; 125 g ai/ha
  Plant response rating: Chickweed: 100
[14]; 31 g ai/ha
  Plant response rating: Barley, Spring: 0
[14]; 16 g ai/ha
  Plant response rating: Barley, Spring: 0
[14]; 62 g ai/ha
  Plant response rating: Barley, Spring: 0
[14]; 125 g ai/ha
  Plant response rating: Barley, Spring: 0
[15]; 31 g ai/ha
  Plant response rating: Foxtail, Green: 95
[15]; 16 g ai/ha
  Plant response rating: Foxtail, Green: 80
[15]; 62 g ai/ha
  Plant response rating: Foxtail, Green: 95
[15]; 125 g ai/ha
  Plant response rating: Foxtail, Green: 95
[16]; 31 g ai/ha
  Plant response rating: Windgrass: 20
[16]; 16 g ai/ha
  Plant response rating: Windgrass: 0
[16]; 62 g ai/ha
  Plant response rating: Windgrass: 25
[16]; 125 g ai/ha
  Plant response rating: Windgrass: 40
[17]; 31 g ai/ha
  Plant response rating: Bromegrass, Downy: 10
[17]; 16 g ai/ha
  Plant response rating: Bromegrass, Downy: 0
[17]; 62 g ai/ha
  Plant response rating: Bromegrass, Downy: 15
[17]; 125 g ai/ha
  Plant response rating: Bromegrass, Downy: 20
[18]; 31 g ai/ha
  Plant response rating: Russian Thistle: 80
[18]; 16 g ai/ha
  Plant response rating: Russian Thistle: 80
[18]; 62 g ai/ha
  Plant response rating: Russian Thistle: 90
[18]; 125 g ai/ha
  Plant response rating: Russian Thistle: 90
[19]; 31 g ai/ha
  Plant response rating: Blackgrass: 5
[19]; 16 g ai/ha
  Plant response rating: Blackgrass: 0
[19]; 62 g ai/ha
  Plant response rating: Blackgrass: 35
[19]; 125 g ai/ha
  Plant response rating: Blackgrass: 35
